# Test results taken from patent US20110311633A1, “Combination of a Silicon Containing Component and a Hormone” (priority 2005, published 2011).
# Tested on: Pre-osteoblast cells
# Assay: Pre-osteoblast cells in oestrogen-free environment, hormone with or without silicon, total protein
# Protocol: The cells for these respective experiments had also been passaged and maintained in media containing no added silicon (for the subsequent E2 or vehicle alone experiments) or containing 50 micromolar silicon (for the subsequent Si or E2+Si experiments).
# Thus in experiments identical to those described above at the 48 hour time point, we investigated the effects of 10^−6 M progesterone instead of oestradiol.
compound,measurement,setting,value
orthosilicic acid,total protein,"orthosilicic acid 50 micromolar without E2, oestrogen-free environment, FIG. 2",no significant effect
C[C@]12CC[C@@H]3c4ccc(O)cc4CC[C@H]3[C@@H]1CC[C@@H]2O [oestradiol],total protein concentration,"10^-9 M E2, absence of silicon, varying lengths of time, versus baseline (vehicle), FIG. 2",no effect
CC(=O)[C@H]1CC[C@H]2[C@@H]3CCC4=CC(=O)CC[C@]4(C)[C@H]3CC[C@]12C [progesterone],total protein,"10^-6 M progesterone together with silicon (50 micromolar), 48 hour time point, FIG. 4",modest effect
